Data as given in PMC12603070, “A high-throughput screening approach to discover potential colorectal cancer chemotherapeutics: repurposing drugs to identify novel disruptors of 14-3-3 proteins” (Cell Death & Disease, 2025).

Assays:
[1] = system: BAD translocation to mitochondria in NIH-3T3 cells; test: Confocal imaging of BAD-mCitrine translocation to TMRE-labeled mitochondria in NIH-3T3; type: cell-based; conditions: NIH-3T3 expressing BAD-mCitrine; R18 10 µM, FTY720 2 µM; 24 h
Method: To visualize BAD translocation, 35 mm glass-bottom dishes (ibidi, Gräfelfing, Germany; #81158) were coated with 0.1 mg/mL Poly-D-lysine hydrobromide for 2 h at 37 °C. After coating, dishes were washed twice with sterilized water. Subsequently, cells transfected with BAD-mCitrine were seeded at a density of 20,000 cells per dish and incubated for 24 h to allow for cell attachment. For live-cell imaging, cells were then incubated for 1 h with the mitochondrial membrane potential dye tetramethylrhodamine ethyl ester (TMRE, Invitrogen; #T668) at a final concentration of 100 nM, according to the manufacturer’s instructions. Images were acquired on a Zeiss (Oberkochen, Germany) LSM-900 Airyscan inverted confocal microscope equipped with an environmental incubation system, laser lines including 488 and 561 nm, and an oil immersion 60×/1.40 Plan achromat objective. The signal from the YFP fluorophore (ex. 488 nm, det. 525–542 nm) and the TMRE (ex. 561 nm, det. 600–700 nm) were collected in super-resolution mode. The cell viability dye, DRAQ (BioLegend, California, USA; #424101), was added to the medium at a 1:1000 dilution from the commercial stock and incubated at room temperature for 30 min prior to live-cell imaging. To quantify the colocalization of BAD-mCitrine and the mitochondria labeled with the TMRE, the JACoP plugin in ImageJ was employed. […]

[2] = target: T1, 14-3-3ζ-Rluc8:112-136F-mC complex (Homo sapiens, UniProt P63104); test: Co-immunoprecipitation of 14-3-3ζ-Rluc8:112-136F-mC complex; type: cell-based; conditions: NIH-3T3 expressing BRET sensor, 20 μM, 3 h, vs DMSO
T1 construct: expressed in transfected cells; host or cells: NIH-3T3 fibroblasts, bi-directional pBI-CMV1 plasmid
T1 sequence (P63104 1-245): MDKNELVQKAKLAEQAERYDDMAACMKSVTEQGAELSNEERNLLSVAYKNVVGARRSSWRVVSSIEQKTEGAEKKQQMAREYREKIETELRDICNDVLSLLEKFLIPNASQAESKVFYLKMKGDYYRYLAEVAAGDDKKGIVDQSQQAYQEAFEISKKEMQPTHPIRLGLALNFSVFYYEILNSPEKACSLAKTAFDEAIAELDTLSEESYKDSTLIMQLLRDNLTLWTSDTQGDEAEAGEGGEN
Method: NIH-3T3 cells were plated in 10 cm culture dishes at a density of 550,000 cells per dish. Transfection was conducted 48 h post-seeding. At 48 h post-transfection, DMSO or FTY-720 (20 μM) was added to the culture media and incubated with cells expressing the BRET-sensor for 3 h. Cell lysates were collected using RIPA buffer (0.9% NaCl, 1% v/v triton X-100, 0.5% sodium deoxycholate, 0.1% SDS, and 0.6% tris base), supplemented with protease inhibitor cocktail (Sigma-Aldrich; #P8340). The protein concentration was determined using the Bradford assay. Equal amounts of protein (100 μg) were subjected to immunoprecipitation using 1 μg anti-GFP antibody per sample (Invitrogen; #A-11120) and protein A/G magnetic beads (Thermo Fisher Scientific, Massachusetts, USA; #80104G), according to the manufacturer’s instructions. Antibodies against GFP were used to precipitate mCitrine due to the high degree of sequence homology. Immunoprecipitated proteins were eluted by boiling the beads in 1 X Laemmli protein sample buffer (Bio-Rad, California, USA; #1610747) for 5 min. Eluted samples were resolved in 10% SDS-PAGE gels and transferred to PVDF membranes (Bio-Rad, California, USA; #10026933) using the Trans-Blot Turbo transfer system (Bio-Rad). […] Protein bands were detected using Clarity Max western ECL substrate. […]

[3] = system: HT-29 and Caco-2 cells; test: Annexin V/propidium iodide apoptosis and caspase dependence (Z-VAD-FMK) in HT-29 and Caco-2; type: cell-based, human; conditions: for Kinetics of induction of cell death and apoptosis: time courses of PI and Annexin V incorporation, HT-29 and Caco-2, 5 and 10 µM
Method: Cells were plated at a density of 20,000 cells/well into 96-well plates (PerkinElmer; #6055302) and incubated overnight at 37 °C before the addition of the drugs. One hour prior to imaging, Hoechst 33342 (Invitrogen, #H3570) and propidium iodide (Invitrogen; #P3566) were added to the wells to achieve final concentrations of 50 ng/ml and 0.5 μg/ml, respectively. To measure apoptosis, AlexaFluor 488-conjugated Annexin V (ThermoFisher, Massachusetts, USA; #A13201) was also added at a dilution of 1:400 from the commercial stock. A high-content imaging system (PerkinElmer; Operetta CLS), was used to quantify cell death and apoptosis by calculating the number of propidium iodide-positive cells relative to Hoechst-positive cells, and the number of Annexin V-positive cells relative to Hoechst-positive cells, respectively. To assess caspase-dependent apoptosis, cells were pre-treated for 30 min with the caspase inhibitor Z-VAD-FMK (BD Biosciences, New Jersey, USA; #550377; 20 μM) or the negative control Z-FA-FMK (BD Biosciences; #550411; 20 μM) prior to the incubation of drugs.

[4] = system: BAD translocation to mitochondria in Caco-2 and HT-29 cells; test: Confocal imaging of BAD-mCitrine translocation to mitochondria in CRC cells; type: cell-based, human; conditions: 2 µM, 24 h post-treatment
Method: To visualize BAD translocation, 35 mm glass-bottom dishes (ibidi, Gräfelfing, Germany; #81158) were coated with 0.1 mg/mL Poly-D-lysine hydrobromide for 2 h at 37 °C. After coating, dishes were washed twice with sterilized water. Subsequently, cells transfected with BAD-mCitrine were seeded at a density of 20,000 cells per dish and incubated for 24 h to allow for cell attachment. For live-cell imaging, cells were then incubated for 1 h with the mitochondrial membrane potential dye tetramethylrhodamine ethyl ester (TMRE, Invitrogen; #T668) at a final concentration of 100 nM, according to the manufacturer’s instructions. Images were acquired on a Zeiss (Oberkochen, Germany) LSM-900 Airyscan inverted confocal microscope equipped with an environmental incubation system, laser lines including 488 and 561 nm, and an oil immersion 60×/1.40 Plan achromat objective. The signal from the YFP fluorophore (ex. 488 nm, det. 525–542 nm) and the TMRE (ex. 561 nm, det. 600–700 nm) were collected in super-resolution mode. The cell viability dye, DRAQ (BioLegend, California, USA; #424101), was added to the medium at a 1:1000 dilution from the commercial stock and incubated at room temperature for 30 min prior to live-cell imaging. To quantify the colocalization of BAD-mCitrine and the mitochondria labeled with the TMRE, the JACoP plugin in ImageJ was employed. A correlation analysis was performed based on Pearson’s coefficient between pixel-gray values for the two channels.

| Abundance of 14-3-3ζ-Rluc8 within the co-immunoprecipitated complex [2] | Compound | BAD translocation to TMRE-labeled mitochondria [1] | Effect of Z-VAD-FMK on annexin V incorporation ([3]; lomitapide-treated Caco-2 cells, 10 μM, 48 h) | Mitochondrial translocation of BAD [4] | Kinetics of induction of cell death and apoptosis [3] |
| --- | --- | --- | --- | --- | --- |
| reduced | CCCCCCCCc1ccc(CCC(N)(CO)CO)cc1 [Fingolimod (FTY720), Fingolimod] | promoted BAD translocation | – | – | – |
| – | O=C(NC1CCN(CCCCC2(C(=O)NCC(F)(F)F)c3ccccc3-c3ccccc32)CC1)c1ccccc1-c1ccc(C(F)(F)F)cc1 [Lomitapide] | – | preventing annexin V incorporation | Mitochondrial translocation of BAD was observed | – |
| – | OC1(c2ccc(Cl)c(C(F)(F)F)c2)CCN(CCCC(c2ccc(F)cc2)c2ccc(F)cc2)CC1 [Penfluridol] | – | – | Mitochondrial translocation of BAD was observed | more rapidly than lomitapide |
| – | CC(C)(C)c1ccc(C(O)CCCN2CCC(C(O)(c3ccccc3)c3ccccc3)CC2)cc1 (centres unmarked) [Terfenadine] | – | – | Mitochondrial translocation of BAD was observed | more rapidly than lomitapide |
